{
  "source": "patent US11826320B2",
  "about": "“Treating COVID 19 by using a mixture of cannabinoids in micellized form to lower levels of pro-inflammatory cytokines and reduce risk of cytokine storm” (WSMEF, LLC, priority 2020, dated 2023)",
  "origin": "cited, not measured here",
  "key": {"cannabinoid CB2 receptor": {"molecular_target": "cannabinoid CB2 receptor (Homo sapiens, UniProt P34972)", "sequence (P34972 whole entry)": "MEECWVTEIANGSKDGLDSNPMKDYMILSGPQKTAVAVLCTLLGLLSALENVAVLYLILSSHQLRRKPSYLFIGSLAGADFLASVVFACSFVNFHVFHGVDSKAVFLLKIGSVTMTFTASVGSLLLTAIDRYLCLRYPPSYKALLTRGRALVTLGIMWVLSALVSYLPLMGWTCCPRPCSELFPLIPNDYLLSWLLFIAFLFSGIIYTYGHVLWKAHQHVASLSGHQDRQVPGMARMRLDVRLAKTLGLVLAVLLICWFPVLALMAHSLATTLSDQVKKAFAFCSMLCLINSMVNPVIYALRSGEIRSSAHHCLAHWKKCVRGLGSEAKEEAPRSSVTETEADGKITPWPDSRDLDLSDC"}, "[1]": {"molecular_target": "T1, serotonin 5-HT1A receptor (Homo sapiens, UniProt P08908)", "T1 sequence (P08908 1-422)": "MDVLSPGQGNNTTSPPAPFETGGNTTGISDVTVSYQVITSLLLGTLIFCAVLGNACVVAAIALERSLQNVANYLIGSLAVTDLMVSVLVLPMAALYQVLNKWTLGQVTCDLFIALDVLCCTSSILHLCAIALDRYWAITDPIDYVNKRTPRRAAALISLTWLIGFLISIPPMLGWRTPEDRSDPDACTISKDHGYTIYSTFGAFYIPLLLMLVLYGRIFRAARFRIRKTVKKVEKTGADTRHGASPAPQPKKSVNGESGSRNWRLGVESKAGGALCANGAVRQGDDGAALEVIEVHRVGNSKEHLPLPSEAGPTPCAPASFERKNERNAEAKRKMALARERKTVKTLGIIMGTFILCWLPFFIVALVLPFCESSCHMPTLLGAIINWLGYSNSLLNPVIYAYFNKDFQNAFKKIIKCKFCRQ"}, "δ-opioid receptor": {"molecular_target": "δ-opioid receptor (Homo sapiens, UniProt P41143)", "sequence (P41143 whole entry)": "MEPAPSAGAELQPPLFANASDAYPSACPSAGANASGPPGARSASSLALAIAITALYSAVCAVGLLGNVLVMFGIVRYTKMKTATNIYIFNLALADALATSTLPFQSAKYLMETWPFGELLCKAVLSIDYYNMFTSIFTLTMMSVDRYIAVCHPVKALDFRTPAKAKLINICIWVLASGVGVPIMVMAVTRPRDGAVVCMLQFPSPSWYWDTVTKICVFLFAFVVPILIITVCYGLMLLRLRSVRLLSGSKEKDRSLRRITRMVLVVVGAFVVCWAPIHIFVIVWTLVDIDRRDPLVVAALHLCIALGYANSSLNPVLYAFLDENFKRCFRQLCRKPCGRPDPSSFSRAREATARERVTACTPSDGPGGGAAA"}, "μ-opioid receptor": {"molecular_target": "μ-opioid receptor (Homo sapiens, UniProt P35372)", "sequence (P35372 whole entry)": "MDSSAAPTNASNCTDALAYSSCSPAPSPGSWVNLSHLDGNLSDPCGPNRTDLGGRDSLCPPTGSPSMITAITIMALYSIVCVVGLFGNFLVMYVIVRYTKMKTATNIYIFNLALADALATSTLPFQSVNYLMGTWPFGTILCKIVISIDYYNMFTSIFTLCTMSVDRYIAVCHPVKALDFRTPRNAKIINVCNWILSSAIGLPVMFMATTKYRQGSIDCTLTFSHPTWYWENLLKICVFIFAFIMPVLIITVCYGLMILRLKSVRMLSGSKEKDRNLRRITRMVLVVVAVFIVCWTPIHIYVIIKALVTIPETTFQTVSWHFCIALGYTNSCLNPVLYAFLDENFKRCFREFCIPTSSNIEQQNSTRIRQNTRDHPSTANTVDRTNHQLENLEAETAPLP"}, "SARS-CoV-2": {"tested_on": "SARS-CoV-2", "settings": "purified CBD"}},
  "data": [
    {"smiles": "C=C(C)[C@@H]1CCC(C)=C[C@H]1c1c(O)cc(CCCCC)cc1O", "note": "[CBD, cannabidiol]", "values": [
      {"measurement": "affinity for CB2 receptor", "setting": "cannabinoid CB2 receptor", "value": "low affinity"},
      {"measurement": "action at 5-HT1A receptor", "setting": "[1]", "value": "partial agonist"},
      {"measurement": "action at δ-opioid receptor", "setting": "δ-opioid receptor", "value": "allosteric modulator"},
      {"measurement": "action at μ-opioid receptor", "setting": "μ-opioid receptor", "value": "allosteric modulator"},
      {"measurement": "replication of SARS-CoV-2", "setting": "SARS-CoV-2", "value": "inhibits replication"}
    ]}
  ]
}
